From patent US5994087A, “Mammalian melanocortin receptors and uses” (Oregon Health Sciences University, priority 1995, dated 1999)

Legend:
[1] = system: central nervous system and renal afferent nerve; conditions: Gruber & Callahan 1989; Klein et al. 1985; Lin et al. 1987; cited from earlier work
rat MC3-R = rat MC3-R (Rattus norvegicus, UniProt P32244); test: Intracellular cAMP production in recombinant MC3-R expressing human 293 cells; type: cell-based
Description: This property of cells expressing melanocortin receptors was used to analyze expression of MC3-R in cells transfected with the expression vectors described herein as follows.
Following hormone treatment, the cells were washed twice with phosphate buffered saline and intracellular cAMP extracted by lysing the cells with 1 ml of 60% ethanol.

pigmentation = conditions: Ling et al. 1979; Slominski et al. 1992; cited from earlier work

Sequence of rat MC3-R (P32244 whole entry): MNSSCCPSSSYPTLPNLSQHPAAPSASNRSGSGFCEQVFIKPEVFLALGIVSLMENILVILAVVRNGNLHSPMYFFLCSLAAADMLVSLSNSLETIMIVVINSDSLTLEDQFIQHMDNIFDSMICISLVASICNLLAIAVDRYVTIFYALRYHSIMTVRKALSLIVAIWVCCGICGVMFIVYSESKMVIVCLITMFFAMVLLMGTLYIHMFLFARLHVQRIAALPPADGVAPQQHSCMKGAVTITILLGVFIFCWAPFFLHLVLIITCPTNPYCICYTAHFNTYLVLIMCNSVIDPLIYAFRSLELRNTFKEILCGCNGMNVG

Structure (SMILES): CSCC[C@H](NC(=O)[C@@H](NC(=O)[C@@H](N)Cc1ccc(O)cc1)C(C)C)C(=O)NCC(=O)N[C@@H](Cc1c[nH]cn1)C(=O)N[C@@H](Cc1ccccc1)C(=O)N[C@@H](CCCNC(=N)N)C(=O)N[C@@H](Cc1c[nH]c2ccccc12)C(=O)N[C@@H](CC(=O)O)C(=O)N[C@@H](CCCNC(=N)N)C(=O)N[C@@H](Cc1ccccc1)C(N)=O [γ-MSH, γ-melanocyte stimulating hormone]
- pressor, cardioaccelerator and natriuretic actions [1]: potent pressor, cardioaccelerator and natriuretic actions
- potency rank among ligands (lowest EC50) (rat MC3-R): most potent ligand and the one having the lowest EC50
- ability to stimulate pigmentation (pigmentation): little or no ability to stimulate pigmentation
